Test [1] relates to K562 cells (human chronic myeloid leukemia). Nature of the test: K562 cell growth inhibition assay. The format is cell-based. The conditions noted are these: 72 h, 10000 cells/well, cell count versus untreated control cells. How it is done: K562 Cell Growth Inhibition Assay
K562 cells, a human myelogenous leukemia cell line, were seeded into a 24 wells tissue culture plate (Falcon 3047) (10000/well) in the presence of increasing concentrations of the compounds. After 72 h, cells were harvested and were counted using a cell counter (Coulter Counter--ZM). The percent of inhibition was evaluated in respect to the untreated control cells.
The inhibitory activity data for two representative compounds according to the present invention, obtained both in the in vitro p45 v-abl kinase assay and the in vivo human chronic myeloid leukemia K562 cell growth inhibition assay described above, are set out in the following Table I.

In test [2] the target is p45 v-abl tyrosine kinase. Nature of the test: in vitro p45 v-abl kinase assay ((Val^5)-Angiotension II phosphorylation). To be noted: 40 ng purified abl-kinase; peptide (2 Mm) and ATP (50 μM); 30° C., pH 8.0; triplicated determinations; read-out: IC50 v-abl, inhibition of p45 v-abl kinase. The format is biochemical, Abelson murine leukaemia virus. How it is done: p45 v-abl Kinase Purification
The enzyme used in our test was the p45 v-abl tyrosine kinase which represents the catalytic domain of the Abelson tyrosine kinase (isolated from the Abelson murine leukaemia virus). The p45 v-abl kinase was produced and isolated as described by Wang et al. in J. Biol. Chem. 260, 64 (1985) and by Ferguson et al. in J. Biol. Chem. 260, 3652 (1985) and in Biochem. J. 257, 321 (1989).
(Val^5)-Angiotension II phosphorylation was performed by incubation with 40 ng of purified abl-kinase and (γ-^32 p)-ATP, in 50 μl of buffer containing Tris-HCl 25 mM, pH 8.0, MgCl2 10 mM and dithiothreitol 0.1 mM (kinase buffer). The reaction mixture was incubated for the indicated time at 30° C. and the reaction stopped by adding 50 μl of 5% trichloroacetic acid. After a brief incubation on ice, tubes were centrifuged. The supernatants were spotted on phosphocellulose paper squares (Whatman P-81) and washed extensively in acetic acid. The radioactivity bound to dried phosphocellulose squares was measured in a liquid scintillation counter. IC50 values were calculated from triplicated determinations of each experimental point. Each inhibitor was tested at concentrations ranging from […] in the presence of fixed concentrations of peptide (2 Mm) and ATP (50 μM). […]

Results on 2 compounds are retold here after patent publication US5840745A, “Hydrosoluble 3-arylidene-2-oxindole derivatives as tyrosine kinase inhibitors” (Pharmacia S. p. A., priority 1995, dated 1998).

The structures appear in SMILES notation. Structures can show the parent of a compound that is named as a salt.

For orientation: IC50 means the concentration needed to halve the response being measured.

Take `CCOC(=O)c1ccc2c(c1)C(=Cc1c[nH]c3ccc(OC)cc13)C(=O)N2` [5-carboethoxy-3-(5-methoxyindol-3-ylmethylene)-2-oxindole]: the results for the IC50 in test [1] and in test [2] were 2340 nM and 1990 nM, respectively.

Consider `COc1ccc2[nH]cc(C=C3C(=O)Nc4ccc(NC(=O)CCN5CCCCC5)cc43)c2c1` [5-(3-piperidinopropionylamino)-3-(5-methoxyindol-3-ylmethylene)-2-oxindole.HCl], for which the figures for the IC50 in test [1] and in test [2] were 3700 nM and 1730 nM, respectively.
